Article PMC9120478 (Nature Communications, 2022)
Residue numbers refer to the chain shown, from its start. Several values for one entry are separate records, joined by “and”; a condition that tells them apart may be missing. Identical values can stand only once. Like-named read-outs stand apart in the source and are kept apart here.

Key:
[1] = target: T1, TRPV3-Y594A (Mus musculus, UniProt Q8K424, Y594A); test: Fura-2 ratiometric Ca2+ measurement, control application of 2-APB; format: cell-based
T1 construct: expressed in transfected cells; host or cells: HEK 293 S GnTI- cells (baculovirus transduction)
T1 sequence (Q8K424 1-791 Y594A): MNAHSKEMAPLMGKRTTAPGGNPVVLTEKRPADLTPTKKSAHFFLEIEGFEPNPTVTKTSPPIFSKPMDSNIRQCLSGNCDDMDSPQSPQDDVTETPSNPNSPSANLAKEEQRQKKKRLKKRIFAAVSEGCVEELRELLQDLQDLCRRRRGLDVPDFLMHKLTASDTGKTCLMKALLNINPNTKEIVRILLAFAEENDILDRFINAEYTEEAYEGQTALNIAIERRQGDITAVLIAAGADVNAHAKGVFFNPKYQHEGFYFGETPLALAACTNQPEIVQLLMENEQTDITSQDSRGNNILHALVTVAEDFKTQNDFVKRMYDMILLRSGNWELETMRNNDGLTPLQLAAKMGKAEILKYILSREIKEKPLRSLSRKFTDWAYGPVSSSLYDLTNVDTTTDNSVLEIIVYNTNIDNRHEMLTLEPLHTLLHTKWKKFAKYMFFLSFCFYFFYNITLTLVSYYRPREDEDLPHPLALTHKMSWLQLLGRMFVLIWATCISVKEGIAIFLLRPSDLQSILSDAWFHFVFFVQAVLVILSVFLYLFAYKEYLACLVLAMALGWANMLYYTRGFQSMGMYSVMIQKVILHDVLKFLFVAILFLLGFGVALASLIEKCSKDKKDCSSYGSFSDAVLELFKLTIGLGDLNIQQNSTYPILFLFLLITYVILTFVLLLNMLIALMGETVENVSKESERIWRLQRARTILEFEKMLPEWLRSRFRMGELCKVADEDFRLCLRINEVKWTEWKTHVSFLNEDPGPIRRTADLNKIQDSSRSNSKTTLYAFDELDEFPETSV
From the text: The portal site in TRPV3 has not been previously shown to bind small-molecule inhibitors. This site, however, was originally proposed to be an entry pathway for local anesthetics to the pore of sodium channels[47]–[49] and found to accommodate cannabidiol in TRPV2, a closely-related representative of the vanilloid subfamily of TRP channels. […] We concluded that the Y594A mutation altered gating properties of TRPV3 and excluded this mutant from further analysis.
GFP-free C-terminally strep-tagged wild-type TRPV3, TRPV3-Y564A, TRPV3-Y594A, TRPV3-F633A, TRPV3-I663W, and TRPV3-F666A were expressed in HEK 293 S GnTI^− cells as previously described[41],[42],[53]. In short, 48 h after transduction, 1-ml aliquots of cell suspension were collected by centrifugation at 550 g for 5 min using an Eppendorf 5424 centrifuge. […] The washed cell pellets were kept on ice in the dark before taking an aliquot for fluorescence measurements. […] Fluorescence measurements were conducted using a QuantaMaster 40 spectrofluorometer (Photon Technology International) at room temperature in a quartz cuvette under constant stirring. […] Changes in intracellular Ca^2+ were measured by taking the ratio of fluorescence emitted at 510 nm at the excitation wavelength of 340 nm and 380 nm. […]

[2] = target: T2, F666A mutant TRPV3 (Mus musculus, UniProt Q8K424, F666A); test: Fura-2 ratiometric Ca2+ measurement, activation by 2-APB; format: cell-based; conditions: for F340/F380 change normalized to approximated maximal value at saturating 2-APB: F666A
T2 construct: expressed in transfected cells; host or cells: HEK 293 S GnTI- cells (baculovirus transduction)
T2 sequence (Q8K424 1-791 F666A): T1 sequence (Q8K424 1-791 Y594A) with A594Y, F666A
Experimental: GFP-free C-terminally strep-tagged wild-type TRPV3, TRPV3-Y564A, TRPV3-Y594A, TRPV3-F633A, TRPV3-I663W, and TRPV3-F666A were expressed in HEK 293 S GnTI^− cells as previously described[41],[42],[53]. In short, 48 h after transduction, 1-ml aliquots of cell suspension were collected by centrifugation at 550 g for 5 min using an Eppendorf 5424 centrifuge. The cells were resuspended in the pre-warmed modified HEPES-buffered saline (HBS) containing 118 mM NaCl, 4.8 mM KCl, 1 mM MgCl2, 5 mM D-glucose, and 10 mM HEPES pH 7.4 and 5 μg/ml Fura-2 AM (Thermo Fisher Scientific) and incubated for 45 min at 37 °C. The Fura-2-loaded cells were then centrifuged for 5 min at 550 g, resuspended in the pre-warmed, modified HBS and incubated again for 30 min at 37 °C in the dark. The cells were subsequently pelleted and washed twice in the modified HBS. The washed cell pellets were kept on ice in the dark before taking an aliquot for fluorescence measurements. […] We used the lower CaCl2 concentration than before[42],[28] (2.5 mM) to minimize non-specific effects, which often appeared as a drift in the Fura-2 signal at high Ca^2+ concentration, presumably due to cell death as a result of calcium overload. Fluorescence measurements were conducted using a QuantaMaster 40 spectrofluorometer (Photon Technology International) at room temperature in a quartz cuvette under constant stirring. After 60 s since the beginning, the recording was paused and 2-APB was added. After the addition of 2-APB, the recording was continued for the additional 140 s. Changes in intracellular Ca^2+ were measured by taking the ratio of fluorescence emitted at 510 nm at the excitation wavelength of 340 nm and 380 nm. […] The data were processed using Origin 9.0 (OriginLab) software.

[3] = system: wild-type TRPV3; conditions: cited from earlier work; for F340/F380 change normalized to approximated maximal value at saturating 2-APB: WT, published before

With `NCCOB(c1ccccc1)c1ccccc1` [2-APB] the “change in F340/F380 on control application of 2-APB, Y594A” value [1] was “barely detectable changes”, the “F340/F380 change normalized to approximated maximal value at saturating 2-APB” value (from here on “F340/F380 change normalized”) ([2]; 2-APB Conc 0.1, single experiments) was 0.01591 and 0.01218 and 0.01441 and the “F340/F380 change normalized” value ([2]; 2-APB Conc 0.3, single experiments) was 0.0415 and 0.03827 and 0.03455. The “F340/F380 change normalized” value ([2]; 2-APB Conc 1, single experiments) was 0.08549 and 0.07903 and 0.08027, the “F340/F380 change normalized” value ([2]; 2-APB Conc 3, single experiments) was 0.1735 and 0.1693 and 0.1578 and the “F340/F380 change normalized” value ([2]; 2-APB Conc 10, single experiments) was 0.3611 and 0.3532 and 0.3454. The “F340/F380 change normalized” value ([2]; 2-APB Conc 30, single experiments) was 0.6328 and 0.6126 and 0.5903, the “F340/F380 change normalized” value ([2]; 2-APB Conc 100, single experiments) was 0.7746 and 0.7881 and 0.7839 and the “F340/F380 change normalized” value ([2]; 2-APB Conc 300, single experiments) was 0.7811 and 0.756 and 0.8326. The “nHill of activation curve, F666A” value ([2]; n = 3) was 0.80 ± 0.02, the EC50 ([2]; n = 3, read-out: EC50, 2-APB-induced activation of F666A) was 20.7 ± 0.9 µM and the “F340/F380 change normalized” value ([3]; 2-APB Conc 3.2, single experiments) was 0.1142 and 0.08511 and 0.06324 and 0.1042. The “F340/F380 change normalized” value ([3]; 2-APB Conc 102.4, single experiments) was 0.8797 and 0.5873 and 0.8594 and 0.9531, the “F340/F380 change normalized” value ([3]; 2-APB Conc 204.8, single experiments) was 0.97 and 1 and 0.6572 and 1.041 and the “nHill of activation curve, wild-type TRPV3” value ([3]; n = 4, published before) was 1.19 ± 0.09. The EC50 ([3]; n = 4, published before, read-out: EC50, 2-APB-induced activation of wild-type TRPV3) was 27.4 ± 4.5 µM.
